Like-named read-outs stand apart in the source and are kept apart here.
Legend:
Format in all cases: in vivo
[1] = tested on: barnyardgrass (Echinochloa crus-galli); test: Test B flooded paddy test; conditions: Echinochloa crus-galli, Flood, 1000 g ai/ha; scale 0 (no effect) to 100 (complete control); read-out: Plant response rating, Barnyardgrass
Procedure, shortened: (§1)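 Rice, umbrella sedge, duck salad and barnyardgrass grown to 2-leaf stage under flooded paddy conditions and treated with formulated test chemicals. Kept in greenhouse 13–15 days, then visually rated against untreated controls on a 0–100 scale (0 no effect, 100 complete control).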

[2] = tested on: umbrella sedge (Cyperus difformis); test: Test B flooded paddy test; conditions: Cyperus difformis, Flood, 1000 g ai/ha; scale 0 to 100; read-out: Plant response rating, Sedge, Umbrella
Procedure, shortened: as §1

[3] = tested on: duck salad (Heteranthera limosa); test: Test B flooded paddy test; conditions: Heteranthera limosa, Flood, 1000 g ai/ha; scale 0 to 100; read-out: Plant response rating, Ducksalad
Procedure, shortened: as §1

rice (Oryza sativa) = test: Test B flooded paddy test; conditions: Oryza sativa, Flood, 1000 g ai/ha; scale 0 to 100; read-out: Plant response rating, Rice
Procedure, shortened: as §1

[4] = tested on: blackgrass (Alopecurus myosuroides); test: Test B postemergence; conditions: Alopecurus myosuroides, post-emergence
Procedure, shortened: (§2)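 Pre: compound (non-phytotoxic solvent + surfactant) applied to freshly planted seeds. Post: same formulation sprayed on 2–18 cm plants, 1- to 4-leaf. Readout: visual control rating 0–100 vs controls, 13–15 d, greenhouse.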

wild oat (Avena fatua) = test: Test B postemergence; conditions: Avena fatua, post-emergence
Procedure, shortened: as §2

[5] = tested on: barnyardgrass (Echinochloa crus-galli); test: Test B pre/postemergence; conditions: Echinochloa crus-galli; for pest or weed control at 125 g/ha: 125 g ai/ha; for pest or weed control at 500 g/ha: 500 g ai/ha
Procedure, shortened: as §2

corn (Zea mays) = test: Test B pre/postemergence; conditions: Zea mays
Procedure, shortened: as §2

[6] = tested on: cocklebur (Xanthium strumarium); test: Test B pre/postemergence; conditions: Xanthium strumarium; for pest or weed control at 125 g/ha: 125 g ai/ha; for pest or weed control at 500 g/ha: 500 g ai/ha
Procedure, shortened: as §2

[7] = tested on: lambsquarters (Chenopodium album); test: Test B pre/postemergence; conditions: Chenopodium album; for pest or weed control at 125 g/ha: 125 g ai/ha; for pest or weed control at 500 g/ha: 500 g ai/ha
Procedure, shortened: as §2

[8] = tested on: pigweed (Amaranthus retroflexus); test: Test B pre/postemergence; conditions: Amaranthus retroflexus; for pest or weed control at 125 g/ha: 125 g ai/ha; for pest or weed control at 500 g/ha: 500 g ai/ha
Procedure, shortened: as §2

[9] = tested on: wheat (Triticum aestivum); test: Test B pre/postemergence; conditions: Triticum aestivum; for plant injury at 125 g/ha: 125 g ai/ha; for plant injury at 500 g/ha: 500 g ai/ha
Procedure, shortened: as §2

[10] = tested on: velvetleaf (Abutilon theophrasti); test: Test B pre/postemergence; conditions: Abutilon theophrasti; for pest or weed control at 125 g/ha: 125 g ai/ha; for pest or weed control at 500 g/ha: 500 g ai/ha
Procedure, shortened: as §2

[11] = tested on: morningglory (Ipomoea coccinea); test: Test B pre/postemergence; conditions: Ipomoea; for pest or weed control at 125 g/ha: 125 g ai/ha; for pest or weed control at 500 g/ha: 500 g ai/ha
Procedure, shortened: as §2

[12] = tested on: crabgrass (Digitaria sanguinalis); test: Test B pre/postemergence; conditions: Digitaria sanguinalis; for pest or weed control at 125 g/ha: 125 g ai/ha; for pest or weed control at 500 g/ha: 500 g ai/ha
Procedure, shortened: as §2

[13] = tested on: Surinam grass (Brachiaria decumbens); test: Test B pre/postemergence; conditions: Urochloa decumbens; for pest or weed control at 125 g/ha: 125 g ai/ha; for pest or weed control at 500 g/ha: 500 g ai/ha
Procedure, shortened: as §2

[14] = tested on: giant foxtail (Setaria faberii); test: Test B pre/postemergence; conditions: Setaria faberi; for pest or weed control at 125 g/ha: 125 g ai/ha; for pest or weed control at 500 g/ha: 500 g ai/ha
Procedure, shortened: as §2

## COC(=O)c1nc(C2CC2)nc(N)c1Cl [Compound 9, methyl 6-amino-5-chloro-2-cyclopropyl-4-pyrimidinecarboxylate]
[1]
  pest or weed control at 1000 g/ha: 90%
[2]
  pest or weed control at 1000 g/ha: 90%
[3]
  pest or weed control at 1000 g/ha: 100%
Rice (Oryza sativa)
  plant injury at 1000 g/ha: 80%
[4]; 125 g ai/ha, scale 0 to 100 (0 no effect, 100 complete control), read-out: Blackgrass plant response rating
  pest or weed control at 125 g/ha: 60%
[4]; 500 g ai/ha, scale 0 to 100, read-out: Plant response rating, Blackgrass
  pest or weed control at 500 g/ha: 80%
Wild oat (Avena fatua); 125 g ai/ha, scale 0 to 100 (0 no effect, 100 complete control), read-out: Oat, Wild plant response rating
  pest or weed control at 125 g/ha: 20%
Wild oat (Avena fatua); 500 g ai/ha, scale 0 to 100, read-out: Plant response rating, Oat, Wild
  pest or weed control at 500 g/ha: 70%
[5]; post-emergence, Postemergence, scale 0 to 100 (0 no effect, 100 complete control), read-out: Barnyardgrass plant response rating
  pest or weed control at 125 g/ha: 90%
[5]; post-emergence, Postemergence, scale 0 to 100, read-out: Plant response rating, Barnyardgrass
  pest or weed control at 500 g/ha: 90%
[5]; pre-emergence, Preemergence, scale 0 to 100 (0 no effect, 100 complete control), read-out: Plant response rating, Barnyardgrass
  pest or weed control at 125 g/ha: 50%
[5]; pre-emergence, Preemergence, scale 0 to 100 (0 no effect, 100 complete control), read-out: Barnyardgrass plant response rating
  pest or weed control at 500 g/ha: 90%
Corn (Zea mays); post-emergence, Postemergence, 125 g ai/ha, scale 0 to 100 (0 no effect, 100 complete control), read-out: Corn plant response rating
  plant injury at 125 g/ha: 70%
Corn (Zea mays); post-emergence, Postemergence, 500 g ai/ha, scale 0 to 100
  Corn plant response rating (crop injury, 0 = no effect, 100 = complete kill) at 500 g/ha: 90%
Corn (Zea mays); pre-emergence, Preemergence, 125 g ai/ha, scale 0 to 100 (0 no effect, 100 complete control)
  Corn plant response rating (crop injury, 0 = no effect, 100 = complete kill) at 125 g/ha: 50%
Corn (Zea mays); pre-emergence, Preemergence, 500 g ai/ha, scale 0 to 100 (0 no effect, 100 complete control), read-out: Corn plant response rating
  plant injury at 500 g/ha: 80%
[6]; post-emergence, Postemergence, scale 0 to 100 (0 no effect, 100 complete control), read-out: Cocklebur plant response rating
  pest or weed control at 125 g/ha: 100%
[6]; post-emergence, Postemergence, scale 0 to 100, read-out: Plant response rating, Cocklebur
  pest or weed control at 500 g/ha: 100%
[6]; pre-emergence, Preemergence, scale 0 to 100 (0 no effect, 100 complete control), read-out: Plant response rating, Cocklebur
  pest or weed control at 125 g/ha: 90%
[6]; pre-emergence, Preemergence, scale 0 to 100 (0 no effect, 100 complete control), read-out: Cocklebur plant response rating
  pest or weed control at 500 g/ha: 100%
[7]; post-emergence, Postemergence, scale 0 to 100 (0 no effect, 100 complete control), read-out: Lambsquarters plant response rating
  pest or weed control at 125 g/ha: 90%
[7]; post-emergence, Postemergence, scale 0 to 100, read-out: Plant response rating, Lambsquarters
  pest or weed control at 500 g/ha: 100%
[7]; pre-emergence, Preemergence, scale 0 to 100 (0 no effect, 100 complete control), read-out: Plant response rating, Lambsquarters
  pest or weed control at 125 g/ha: 90%
[7]; pre-emergence, Preemergence, scale 0 to 100 (0 no effect, 100 complete control), read-out: Lambsquarters plant response rating
  pest or weed control at 500 g/ha: 100%
[8]; post-emergence, Postemergence, scale 0 to 100 (0 no effect, 100 complete control), read-out: Pigweed plant response rating
  pest or weed control at 125 g/ha: 100%
[8]; post-emergence, Postemergence, scale 0 to 100, read-out: Plant response rating, Pigweed
  pest or weed control at 500 g/ha: 100%
[8]; pre-emergence, Preemergence, scale 0 to 100 (0 no effect, 100 complete control), read-out: Plant response rating, Pigweed
  pest or weed control at 125 g/ha: 90%
[8]; pre-emergence, Preemergence, scale 0 to 100 (0 no effect, 100 complete control), read-out: Pigweed plant response rating
  pest or weed control at 500 g/ha: 100%
[9]; post-emergence, Postemergence, scale 0 to 100 (0 no effect, 100 complete control), read-out: Wheat plant response rating
  plant injury at 125 g/ha: 40%
[9]; post-emergence, Postemergence, scale 0 to 100, read-out: Plant response rating, Wheat
  plant injury at 500 g/ha: 70%
[9]; pre-emergence, Preemergence, scale 0 to 100 (0 no effect, 100 complete control), read-out: Plant response rating, Wheat
  plant injury at 125 g/ha: 40%
[9]; pre-emergence, Preemergence, scale 0 to 100 (0 no effect, 100 complete control), read-out: Wheat plant response rating
  plant injury at 500 g/ha: 80%
[10]; post-emergence, Postemergence, scale 0 to 100 (0 no effect, 100 complete control), read-out: Velvetleaf plant response rating
  pest or weed control at 125 g/ha: 100%
[10]; post-emergence, Postemergence, scale 0 to 100, read-out: Plant response rating, Velvetleaf
  pest or weed control at 500 g/ha: 100%
[10]; pre-emergence, Preemergence, scale 0 to 100 (0 no effect, 100 complete control), read-out: Plant response rating, Velvetleaf
  pest or weed control at 125 g/ha: 90%
[10]; pre-emergence, Preemergence, scale 0 to 100 (0 no effect, 100 complete control), read-out: Velvetleaf plant response rating
  pest or weed control at 500 g/ha: 100%
[11]; post-emergence, Postemergence, scale 0 to 100 (0 no effect, 100 complete control), read-out: Morningglory plant response rating
  pest or weed control at 125 g/ha: 100%
[11]; post-emergence, Postemergence, scale 0 to 100, read-out: Plant response rating, Morningglory
  pest or weed control at 500 g/ha: 100%
[11]; pre-emergence, Preemergence, scale 0 to 100 (0 no effect, 100 complete control), read-out: Plant response rating, Morningglory
  pest or weed control at 125 g/ha: 100%
[11]; pre-emergence, Preemergence, scale 0 to 100 (0 no effect, 100 complete control), read-out: Morningglory plant response rating
  pest or weed control at 500 g/ha: 100%
[12]; post-emergence, Postemergence, scale 0 to 100 (0 no effect, 100 complete control), read-out: Crabgrass plant response rating
  pest or weed control at 125 g/ha: 90%
[12]; post-emergence, Postemergence, scale 0 to 100, read-out: Plant response rating, Crabgrass
  pest or weed control at 500 g/ha: 90%
[12]; pre-emergence, Preemergence, scale 0 to 100 (0 no effect, 100 complete control), read-out: Plant response rating, Crabgrass
  pest or weed control at 125 g/ha: 90%
[12]; pre-emergence, Preemergence, scale 0 to 100 (0 no effect, 100 complete control), read-out: Crabgrass plant response rating
  pest or weed control at 500 g/ha: 100%
[13]; post-emergence, Postemergence, scale 0 to 100 (0 no effect, 100 complete control), read-out: Surinam Grass plant response rating
  pest or weed control at 125 g/ha: 90%
[13]; post-emergence, Postemergence, scale 0 to 100, read-out: Plant response rating, Surinam Grass
  pest or weed control at 500 g/ha: 90%
[13]; pre-emergence, Preemergence, scale 0 to 100 (0 no effect, 100 complete control), read-out: Plant response rating, Surinam Grass
  pest or weed control at 125 g/ha: 70%
[13]; pre-emergence, Preemergence, scale 0 to 100 (0 no effect, 100 complete control), read-out: Surinam Grass plant response rating
  pest or weed control at 500 g/ha: 90%
[14]; post-emergence, Postemergence, scale 0 to 100 (0 no effect, 100 complete control), read-out: Foxtail, Giant plant response rating
  pest or weed control at 125 g/ha: 90%
[14]; post-emergence, Postemergence, scale 0 to 100, read-out: Plant response rating, Foxtail, Giant
  pest or weed control at 500 g/ha: 90%
[14]; pre-emergence, Preemergence, scale 0 to 100 (0 no effect, 100 complete control), read-out: Plant response rating, Foxtail, Giant
  pest or weed control at 125 g/ha: 70%
[14]; pre-emergence, Preemergence, scale 0 to 100 (0 no effect, 100 complete control), read-out: Foxtail, Giant plant response rating
  pest or weed control at 500 g/ha: 80%

Source: patent US8802597B2, “Herbicidal pyrimidines” (E I du Pont de Nemours and Company, priority 2003, dated 2014)
